Laboratory results taken from patent publication US6706740B2, “Fungicidal heterocyclic aromatic amides and their compositions, methods of use and preparation” (Dow AgroSciences LLC, priority 1999, dated 2004).

Assays:
[1] = tested on: Mycosphaerella graminicola (Septoria tritici—SEPTTR); assay: In vitro fungal growth inhibition, Mycosphaerella graminicola (SEPTTR); format: cell-based; details: Zymoseptoria tritici; 25 ppm in growth medium; read-out: SEPTTR in vitro Growth Inhibition
Septoria tritici—SEPTTR = assay: Leaf Blotch of Wheat, in vivo whole plant, 24 Hour Protectant; details: 100 ppm spray, wheat, 24 hour protectant, control of fungal infection vs untreated plants; for pest or weed control at 100 ppm: Zymoseptoria tritici, 24 h, read-out: SEPTTR in vivo 1 Day Protectant
Erysiphe graminis—ERYSGT = assay: Powdery Mildew of Wheat, in vivo whole plant, 24 Hour Protectant; details: Erysiphe; 100 ppm spray, wheat, 24 hour protectant; control of fungal infection vs untreated plants; read-out: ERYSGT in vivo 1 Day Protectant
[2] = tested on: Leptosphaeria nodorum—LEPTNO; assay: Glume Blotch of Wheat, in vivo whole plant, 24 Hour Protectant; details: 100 ppm spray, wheat, 24 hour protectant, control of fungal infection vs untreated plants; for pest or weed control at 100 ppm: Leptosphaeria, read-out: LEPTNO in vivo 1 Day Protectant
[3] = tested on: Rhizoctonia solani (RHIZSO); assay: microbe, parasite or virus in culture; format: cell-based; details: Rhizoctonia solani, read-out: RHIZSO in vitro Growth Inhibition
[4] = tested on: Phytophthora infestans (PHYTIN); assay: microbe, parasite or virus in culture; format: cell-based; details: Phytophthora infestans, read-out: PHYTIN in vitro Growth Inhibition
Ustilago maydis (USTIMA) = assay: microbe, parasite or virus in culture; format: cell-based; details: Mycosarcoma maydis, read-out: USTIMA in vitro Growth Inhibition
[5] = tested on: Stagonospora nodorum (Leptosphaeria nodorum—LEPTNO); assay: In vitro fungal growth inhibition, Stagonospora nodorum (LEPTNO); format: cell-based; details: Leptosphaeria; 25 ppm in growth medium; read-out: LEPTNO in vitro Growth Inhibition
[6] = tested on: Phytophthora infestans—PHYTIN; assay: whole plant or invertebrate; format: in vivo; details: Phytophthora, in Solanum lycopersicum, 24 h, read-out: PHYTIN in vivo 1 Day Protectant
[7] = tested on: Magnaporthe grisea (Pyricularia oryzae—PYRIOR); assay: microbe, parasite or virus in culture; format: cell-based; details: Pyricularia oryzae, read-out: PYRIOR in vitro Growth Inhibition
[8] = tested on: Puccinia recondita—PUCCRT; assay: Brown Rust of Wheat, in vivo whole plant, 24 Hour Protectant; details: 100 ppm spray, wheat, 24 hour protectant, control of fungal infection vs untreated plants; for pest or weed control at 100 ppm: Puccinia, read-out: PUCCRT in vivo 1 Day Protectant

Row | SMILES | inhibition at 25 ppm [1] | pest or weed control at 100 ppm (Septoria tritici—SEPTTR) | pest or weed control at 100 ppm (Erysiphe graminis—ERYSGT) | pest or weed control at 100 ppm [2] | inhibition at 25 ppm [3] | inhibition at 25 ppm [4] | inhibition at 25 ppm (Ustilago maydis (USTIMA)) | inhibition at 25 ppm [5] | pest or weed control at 100 ppm [6] | inhibition at 25 ppm [7] | pest or weed control at 100 ppm [8] | LEPTNO in vivo 1 Day Protectant [2] | SEPTTR in vivo 1 Day Protectant (Septoria tritici—SEPTTR) | PUCCRT in vivo 1 Day Protectant [8]
1 | COc1ccnc(C(=O)NC2O[C@H](CO)[C@H]3OC(C)(C)O[C@@H]23)c1O (stereo partly shown) [Compound 329] | < 80% | 25 to 74% | < 25% | 25 to 74% | < 80% | < 80% | < 80% | < 80% | < 25% | < 80% | 25 to 74% |  |  | 
2 | COc1ccnc(C(=O)N[C@@H]2OC[C@@H](OC(C)=O)[C@H](OC(C)=O)[C@H]2OC(C)=O)c1O [Compound 330] | < 80% | < 25% | < 25% | < 25% | < 80% | < 80% | < 80% | < 80% | < 25% | < 80% | < 25% |  |  | 
3 | CCCO[C@@H]1[C@@H](OCCC)[C@H](OCCC)CO[C@H]1NC(=O)c1nccc(OC)c1O [Compound 331] | < 80% | < 25% | < 25% | 25 to 74% | < 80% | < 80% | < 80% | < 80% | < 25% | > 80% | < 25% |  |  | 
4 | COc1ccnc(C(=O)N[C@@H]2OC[C@@H](OCc3ccccc3)[C@H](OCc3ccccc3)[C@H]2OCc2ccccc2)c1O [Compound 332] | < 80% | 25 to 74% | < 25% | 25 to 74% | < 80% | < 80% | < 80% | < 80% | < 25% | < 80% | < 25% |  |  | 
5 | COc1ccnc(C(=O)N[C@H]2O[C@@H](C)[C@@H](OC(C)=O)[C@@H](OC(C)=O)[C@@H]2OC(C)=O)c1O [Compound 333] | < 80% | 25 to 74% | < 25% | 25 to 74% | < 80% | < 80% | < 80% | < 80% | < 25% | < 80% | 25 to 74% |  |  | 
6 | COc1ccnc(C(=O)N[C@@H]2[C@@H](O)[C@H](O)[C@@H](CO)O[C@@H]2O)c1O [Compound 334, N-(3-HYDROXY-4-METHOXY-2-PYRIDYLCARBONYL)-2-AMINO-2-DEOXY-alpha-D-GLUCOPYRANOSE] | < 80% | < 25% | < 25% | 25 to 74% | < 80% | < 80% | < 80% | < 80% | < 25% | < 80% | < 25% |  |  | 
7 | COc1ccnc(C(=O)N[C@H]2[C@@H](OC(C)=O)O[C@H](COC(C)=O)[C@@H](OC(C)=O)[C@@H]2OC(C)=O)c1O [Compound 335] | < 80% | < 25% | < 25% | 25 to 74% | < 80% | < 80% | < 80% | < 80% | 25 to 74% | < 80% | < 25% |  |  | 
8 | COc1ccnc(C(=O)N[C@@H](Cc2ccc(OCc3ccccc3)cc2)C(=O)O)c1O [Compound 337] | < 80% | < 25% | < 25% |  | < 80% | < 80% | < 80% | < 80% | < 25% | < 80% | 25 to 74% | + + |  | 
9 | COc1ccnc(C(=O)N[C@@H](Cc2ccc(OCc3ccccc3)cc2)C(=O)OCc2ccccc2)c1O [Compound 339] | < 80% |  | < 25% |  | < 80% | < 80% | < 80% | < 80% | < 25% | < 80% |  | + + | + + | + +
10 | COC(=O)C(CO)NC(=O)c1nccc(OC)c1O (stereo not shown) [Compound 340] | < 80% | < 25% | 25 to 74% | 25 to 74% | < 80% | < 80% | < 80% | < 80% | < 25% | < 80% | < 25% |  |  | 
11 | COc1ccnc(C(=O)N[C@@H](CO)C(=O)O[C@@H](C)[C@H](OC(=O)C(C)C)[C@@H](Cc2ccccc2)C(=O)O)c1O [Compound 341] | < 80% | 25 to 74% | < 25% | < 25% | < 80% | < 80% | < 80% | < 80% | < 25% | < 80% | < 25% |  |  | 
12 | COc1ccnc(C(=O)N[C@@H](COCc2ccccc2)C(=O)O[C@@H](C)[C@H](OC(=O)C(C)C)[C@@H](Cc2ccccc2)C(=O)OCc2ccccc2)c1O [Compound 342] | < 80% | 25 to 74% | 25 to 74% | 25 to 74% | < 80% | < 80% | > 80% | < 80% | < 25% | < 80% |  |  |  | + +
13 | COC(=O)C(COC(=O)C(C)c1ccccc1)NC(=O)c1nccc(OC)c1O (stereo not shown) [Compound 343] | < 80% | < 25% | 25 to 74% | 25 to 74% | < 80% | < 80% | < 80% | < 80% | < 25% | < 80% | < 25% |  |  | 
14 | COC(=O)C(COC(=O)CCc1ccccc1)NC(=O)c1nccc(OC)c1O (stereo not shown) [Compound 344] | < 80% | 25 to 74% | < 25% | 25 to 74% | < 80% | < 80% | < 80% | > 80% | < 25% | < 80% | < 25% |  |  | 
15 | COC(=O)C(COC(=O)C(C)Cc1ccccc1)NC(=O)c1nccc(OC)c1O (stereo not shown) [Compound 345] | < 80% | < 25% | < 25% | < 25% | < 80% | < 80% | < 80% | < 80% | < 25% | < 80% | 25 to 74% |  |  | 
16 | COC(=O)C(COC(=O)COCc1ccccc1)NC(=O)c1nccc(OC)c1O (stereo not shown) [Compound 346] | < 80% | 25 to 74% | < 25% | < 25% | < 80% | > 80% | < 80% | < 80% | < 25% | < 80% | 25 to 74% |  |  | 
17 | COC(=O)C(COC(=O)CC(C)OC(=O)C(C)C)NC(=O)c1nccc(OC)c1O (stereo not shown) [Compound 347] | < 80% | < 25% | < 25% | 25 to 74% | < 80% | < 80% | < 80% | < 80% | < 25% | < 80% | 25 to 74% |  |  | 
